{"source": "patent US6057153A", "about": "“Stabilized external guide sequences” (Yale University, priority 1997, dated 2000)", "key": {"[1]": {"system": "short substrate (SEQ ID NO. 1) derived from the full-length pre-genomic HBV RNA", "assay": "RNAse P cleavage assay, short substrate", "type": "biochemical", "settings": "for efficiency of RNase P-mediated target cleavage relative to the wild-type EGS: short substrate, EGS 200 nM, 37° C., 1 hour", "description": "RNAse P Cleavage Assays: Cleavage reactions were carried out generally according to the procedure described by Yuan et al., Proc. Natl. Acad. Sci., USA, 89:8006-8010, (1992), which is hereby incorporated by reference. Briefly, short substrate reactions were made up to a total volume of 31μ in 50 mM Tris-HCl pH 7.4, 10 mM MgCl2, 25 mM KCl, 0.1 mM EDTA, […] at 37° C. for 1 hour. After incubation, the reaction solution was mixed with loading buffer (98% formamide, 10 mM EDTA, 0.025% bromophenol blue). The cleaved substrate was separated from the uncleaved by electrophoresis on a 15% acrylamide gel containing 7 M urea. The bands were quantified on a Molecular Dynamics PHOSPHORIMAGER™.\nThe bands corresponding to the precursor RNA substrate and the resulting two cleavage products were counted from the dried gel using a BETASCOPE™ gel analyzer (Betagen).\nRNAse P was purified by DEAE SEPHAROSE™ chromatography and glycerol density gradient centrifugation essentially as described by Bartkiewicz et al., Genes Dev. 3:488-499 (1989), which is hereby incorporated by reference.\nThe percentage of precursor RNA substrate remaining in either assay was plotted as function of the EGS concentration and the catalytic efficiency expressed as kcat /Km (where kcat is the rate constant of cleavage and Km is the Michaelis constant), the second order rate constant for the reaction of free EGS and substrate. Following the methods of Heidenreich and Eckstein (J. Biol. Chem., 267:1904-1909 (1992), the efficiency of the cleavage reaction, kcat /Km), was determined using the formula\nThe EGS constructs described in Example 2 were assayed using the RNAse P cleavage assays described in Example 1 to determine the efficiency of the cleavage reaction. FIG. 1 depicts the model system using a short substrate which was used to evaluate the ability of modified EGS molecules in inducing RNase P-mediated target cleavage. The sequence of the short substrate (SEQ ID NO. 1) was derived from the full-length pre-genomic HBV RNA."}, "[2]": {"assay": "Fetal Calf Serum Stability Assay", "type": "in vitro ADME", "settings": "10% heat-inactivated fetal calf serum, EGS about 5 μM", "description": "Fetal Calf Serum Stability Assay: The nuclease resistance of modified EGS molecules were tested in a Fetal Calf Serum (FCS) Assay. It was reported by Shaw et al., Nucleic Acids Res. 19:747-750 (1991), that 10% FCS, when heated inactivated, mimics rather closely the human serum. The assay conditions were very similar to that previously described by Hoke et al., Nucleic Acids Res. 19:5743-5748 (1991). Briefly, an EGS analog to be tested was 5'-end labeled with T4 polynucleotide kinase and [γ-^35 S] ATP (this procedure can generate radiolabeled oligonucleotides which are resistant against dephosphorylation). The labeled EGS was then purified by phenol/chloroform extraction, followed by a Sephadex G-25 spin-column filtration. The purified EGS was mixed with cold EGS and 10% heat-inactivated fetal calf serum (FCS) so that the final concentration of EGS was about 5 μM. EGS analogues were treated over a period of 24 hours. Aliquots were withdrawn from the reaction mixture at different time points, mixed with 2× loading dye, heat inactivated at 90° C. for 3 min, then stored at -20° C. The results were analyzed on 12% polyacrylamide/7 M urea gels."}, "2.1 kb HBV RNA": {"system": "2.1 kb HBV RNA", "assay": "RNAse P cleavage of large target RNA", "type": "biochemical", "settings": "250 nM EGS, 30 minutes at 37° C.", "description": "To test cleavage with a longer target RNA molecules, different reaction conditions were used. Reactions in a total volume of 10 μl contained 40 mM Tris-HCl (pH 7.4), 10 mM MgCl2, 1 mM spermidine 10 mM dithiothreitol, 0.05 μg/μl nuclease-free bovine serum albumin, 0.01% (v/v) Triton-X100™, 0.8 Units/μl RNASIN, 0.2 mM ATP, 0.2 mM GTP, 0.2 mM UTP, 0.2 mM CTP, 0.1 μCi/μl [a^32 P] CTP, 2 mM m^7 G(5')pppG, 0.06 μg/μl yeast RNA, 25 mM KCl, 3 Units T7 RNA polymerase, 250 nM EGS, 1 μl of human RNAse P and 3 ng/μl linearized plasmid. Reactions were initiated by the addition of linearized plasmid and incubated for 30 minutes at 37° C. Reactions were terminated by the addition of 10 μl of 80% formaemide, 10 mM EDTA, 0.1% bromphenol blue. After heating for 2 minutes at 90° C., samples were electrophoresed for 2 hours at 48 watts on a 5% denaturing polyacrylamide gel. After vacuum drying for 1 hour at 60° C., the gel was analyzed by phosphoimaging.\nCleavage of Large Target RNA: Plasmid pAYW2.1, containing the sequence that encodes the 2.1 kb RNA of the AYW strain of HBV, was linearized by digestion with Not I, and then transcribed by T7 RNA polymerase in the presence of [α^32 P]CTP. Labeled transcripts were incubated for 30 minutes at 37° C. with RNase P in the presence of various EGS molecules. Reaction products were subjected to denaturing polyacrylamide gel electrophoresis, and analyzed by phosphoimaging. EGS-mediated cleavage at the targeted site of the 2.1 kb transcript produces cleavage products that are approximately 1.7 and 0.4 kb in length."}, "[3]": {"assay": "Nuclease resistance studies in 50% human serum", "type": "in vitro ADME", "settings": "37° C., 24 h", "description": "Nuclease resistance studies--100 μl of EGS oligonucleotides (5 μM), containing a trace of 5'-end-labeled oligomers, were incubated at 37° C. for different time periods (0-24 h) with 50% human serum (Sigma, S-7023). 20 μl aliquots were diluted to 100 μl with RNase-free water, phenol/chlorform extracted, and ethanol precipitated. The residue was resuspended in 10 μl of TE and 10 μl of 2× gel loading buffer containing 98% formamide, 10 mM1 EDTA and 0.1% bromophenol blue. The mixture was heated to 85° C. for 1 min, quickly cooled on ice and frozen at -20° C. prior to electrophoresis on 15% polyacrylamide/8 M urea gels. Gels were subsequently scanned on a Molecular Dynamics PHOSPHORIMAGER™, and the stability profile for each, oligomer was estimated from the ratio of the remaining intact materials versus all radio-labeled materials (intact oligomers plus degradation products). Stability studies of non radio-labeled EGS oligomers using capillary gel electrophoresis were also carried out according to the method of Leeds et al. (15)."}, "[4]": {"system": "EGS/target RNA complex (SUB-156) with human RNase P", "assay": "Measurements of kcat and A50", "type": "biochemical, hepatitis B virus (HBV)", "description": "Measurements of kcat, Km and A50 --Measurements of these kinetic parameters were carried out using conditions similar to those described above (e.g. identical cleavage buffers). For kcat measurements, aliquots were taken every 30-60 s for the first 5 min. The logarithm of the percentage of cleavage (Abs. Cleavage %) was plotted against time, and the data points were fitted using a linear least-squaresanalysis. The slope represents kcat values. For Km measurements,a fixed amount of RNase P (0.6 μl) was used, while substrate concentrations (i.e. EGS/target RNA complex) varied from 25 to 500 nM. Several EGS/target RNA ratios were assayed including 1:1, 5:1 and 10:1. Attempts were made to obtain Km and Vmax values from linear Lineweaver-Burk or Eadie-Hofstee plots. The scattered values could not be fit as a hyperbolic function. For A50 measurements, the ratio between EGS and target RNA was kept as 10:1. Various amounts of RNase P (0.3 to 3 μl) were used to conduct a 60-min cleavage reaction. Percentage of cleavage was plotted against [RNase P] in μl, and 50% cleavage values (A50) were determined using a non-linear, least-squares routine (Kaleidagraph, Synergy Software). The amount of RNase P required to reach A50 was then converted to enzyme unit. 1 unit of RNase P represents the amount of RNase P that catalyzes the conversion of 1 pmol of tRNA^Tyr precursor to cleavage products per minute per μl of the enzyme preparation. 1 unit of RNase P preparation used for this study equals 28.57 μl."}, "Substrate RNA (SUB-156)": {"system": "Substrate RNA (SUB-156)", "assay": "RNase P-mediated cleavage assay, single turnover conditions", "type": "biochemical, hepatitis B virus (HBV)", "settings": "200 nM EGS, 20 nM substrate, saturating RNase P, 60 min", "description": "RNase P-mediated cleavage assay--Human RNase P was purified from HeLa cells according to the published procedures (14). Substrate RNA (SUB-156, FIG. 24) was 5'-end labeled using T4 polynucleotide kinase and [γ-^32P]ATP. The labeling mixture was then heated to 85° C. for 1 min, diluted with RNase-free water, and purified by a MICROSPIN™ G-25 column (Pharmacia) according to the manufacturer's instructions. Cleavage reactions were conducted in a reaction buffer containing 50 mM Tris-HCl (pH 7.4), 25 mM KCl, 10 mM MgCl2 and 0.1 mM EDTA. EGS oligomers and ^32 p-5'-end-labeled RNA substrate were heated in the reaction buffer without MgCl2 to 85° C. for 1 min and then slowly cooled to room temperature. The cleavage reaction was initiated by adding 2 μl of 100 mM MgCl2 and 3 μl of RNase P (enzyme activity for this preparation: cleavage of 0.035 pmol of tRNA^Tyr precursor min^-1 μl^-1). The final reaction volume was 20 μl and the reaction was incubated at 37° C. for 60 min. […] For each sample, cleavage reactions were performed in duplicates and the average values were used. To ensure reproducibility, cleavage assays for each EGS were also repeated in two separate experiments. The all-RNA EGS-159 was used as the reference sample and its cleavage values were counted as 100%. Cleavage percentages of all other EGSs were normalized against EGS-159 (Rel. Cleavage %) except in FIG. 30 and FIG. 31 where absolute cleavage percentages (Abs. Cleavage %) were plotted.\nFor EGS-single turnover conditions, the final concentrations were 200 nM for EGS and 20(nM for the RNA substrate. For EGS-multiple turnover conditions, the final concentrations were 200 nM for the RNA substrate and 40 nM for EGS. When determination of the time-course was required, the reaction volume was increased to 40 μl. Aliquots of 5-8 μl were removed from the reaction mixture at different time points (e.g. 1, 5, 15, 30 and 60 min), quenched in formamide loading buffer, and loaded onto 15% polyacrylamide/8 M urea gels. Quantitation of the cleavage product and the remaining RNA substrate was achieved using a Molecular Dynamics PHOSPHORIMAGER™.\nGeneral considerations--To select lead nuclease-resistant oligonucleotide prototypes as external guide sequences among many possible modifications, a reliable yet rapid in vitro cleavage assay for routine screening was used. Human RNase P, a ribonucleoprotein, is composed of a 340-nt H1 RNA component and one or more proteins (for recent review, see Ref. 16). A 3-step screening strategy was devised: 1) All analogues once synthesized were tested by a fast qualitative cleavage assay under single turnover conditions with 10-fold excess of EGS over target RNA substrate for 60 min. […] This was the best cleavage condition used in this study. Any analogue with a reasonable activity (e.g. more than 5% cleavage) would not be missed, under these circumstances, due to the high detection sensitivity provided by PHOSPHORIMAGER™. 2) Promising analogues were then assayed for stability in 50% human serum."}}, "note": "Entries after “also recorded” stand apart in the source; their conditions may differ.", "data": [{"substance": "INNO-139: SEQ ID NO. 3, variable loop deleted, 2'-O-methyl recognition sequences and T stem (CGAUGAAGGUUCGAAUCCUUCCCAGGAC; 2'-O-methyl modifications, chemistry not fully specified)", "values": [{"measurement": "turnover of EGS-mediated cleavage", "setting": "[1]; EGS 20 nM, target 400 nM (20 fold excess)", "result": "do not significantly affects turnover"}, {"measurement": "efficiency of RNase P-mediated target cleavage relative to the wild-type EGS", "setting": "[1]", "result": "much of the lost activity can be restored"}, {"measurement": "half-life in 10% FCS", "setting": "[2]", "result": 2, "unit": "h"}]}, {"substance": "INNO-140: all-RNA EGS without variable loop, SEQ ID NO. 3, 28 nucleotides (CGAUGAAGGUUCGAAUCCUUCCCAGGAC; guide RNA; RNA, backbone not given here)", "values": [{"measurement": "half-life in 10% FCS", "setting": "[2]", "result": "less than 10 minutes"}]}, {"substance": "INNO-155: SEQ ID NO. 3, 2'-O-methyl, phosphorothioate T loop, 2'-O-methyl phosphorothioate end caps (CGAUGAAGGUUCGAAUCCUUCCCAGGAC; 2'-O-methyl, phosphorothioate T loop and end caps, positions not given here)", "values": [{"measurement": "efficiency of RNase P-mediated target cleavage relative to the wild-type EGS", "setting": "[1]", "result": "capable of inducing an efficient target cleavage"}, {"measurement": "RNase P-mediated cleavage of 2.1 kb HBV RNA", "setting": "2.1 kb HBV RNA", "result": "capable of inducing RNase P-mediated cleavage; also recorded: partially cleaved"}, {"measurement": "half-life in 10% FCS", "setting": "[2]", "result": "more than 18 hours"}]}, {"substance": "EGS-398: lead prototype, U54 replaced with 2'-deoxyuridine, SEQ ID NO. 44 (guide AGAUGAUAGAAGGUUAGAAUCCUUCACGCCGC; 2'-deoxyuridine at tRNA position 54, rest of chemistry not given here)", "values": [{"measurement": "degradation in 50% human serum", "setting": "[3]", "result": "no degradation products were detected"}, {"measurement": "A50 (amount of RNase P required to achieve 50% cleavage)", "setting": "[4]; 60 min, EGS in 10-fold excess relative to the RNA target", "result": 0.061, "unit": "unit"}, {"measurement": "kcat", "setting": "[4]; single turnover, first 5 min", "result": "indistinguishable from that of the all-RNA control"}, {"measurement": "RNase P-mediated cleavage activity compared to the all-RNA control", "setting": "Substrate RNA (SUB-156)", "result": "promising"}]}]}
